The target of one test is T1, gelatinase MMP-9 (Homo sapiens, UniProt P14780).
T1 construct: purchased Anaspec, USA
The test can be described thus: Test for enzymatic inhibition of MMP-9 (colorimetric, thiopeptide substrate/DTNB). Type of test: biochemical. The conditions noted are these: purified human enzyme; for IC50: 1 h preincubation, 150 μM substrate, read-out: IC50 MMP9; for Ki: read-out: Ki MMP9. As to the method: (§1) Protocols of the Tests for Enzymatic Inhibition of MMP-9 and MMP-12
(§2) The enzymatic tests for screening compounds 1 to 7 were carried out in solution on two purified human enzymes: the gelatinase MMP-9 (Anaspec, USA) and the metalloelastase MMP-12 (Anaspec, USA).
(§3) The principle is based on the cleavage, by the MMP-9 or MMP-12 enzyme, of a chromogenic substrate: the thiopeptide (Ac-Pro-Leu-Gly-[2-mercapto-4-methylpentanoyl]-Leu-Gly-OC2H5) (Enzo Life Sciences, USA).
(§4) The hydrolysis of this thiopeptide produces a sulfhydryl group which reacts with Ellman's reagent: 5,5′-dithiobis(2-nitrobenzoic acid) (DTNB) to form 2-nitro-5-thiobenzoic acid (TNB), which is detected by its absorbance at 412 nm
(§5) The tests are carried out in the buffer 50 mM Hepes, 10 mM CaCl2, 0.5% Brij35, 1 mM DTNB, pH 7.0 containing the purified MMP-9 and MMP-12 enzymes diluted to the final concentration of 0.8 μg/ml.
(§6) After preincubation of the enzymes (1 h at ambient temperature in the dark) with or without the products tested (minimum of four doses serially diluted one-in-ten), the cleavage reactions are initiated by adding 150 μM (final concentration) of substrate in a total final volume of 100 μl (96-well plate format).
(§7) The plates containing the reactions are read in a microplate reader (Multiskan Ascent, ThermoElectron, France) in order to continuously measure the absorbance and to record values every […] for 3 h. Each condition is carried out in triplicate.
(§8) The concentration which inhibits 50% of the reaction (IC50) is determined from curves representing the absorbance (optical density) of the final reaction product (TNB) as a function of the doses tested. Each experiment is carried out at least twice.

In a further test the target is T2, metalloelastase MMP-12 (Homo sapiens, UniProt P39900).
T2 construct: purchased Anaspec, USA
T2 sequence (P39900 106-470): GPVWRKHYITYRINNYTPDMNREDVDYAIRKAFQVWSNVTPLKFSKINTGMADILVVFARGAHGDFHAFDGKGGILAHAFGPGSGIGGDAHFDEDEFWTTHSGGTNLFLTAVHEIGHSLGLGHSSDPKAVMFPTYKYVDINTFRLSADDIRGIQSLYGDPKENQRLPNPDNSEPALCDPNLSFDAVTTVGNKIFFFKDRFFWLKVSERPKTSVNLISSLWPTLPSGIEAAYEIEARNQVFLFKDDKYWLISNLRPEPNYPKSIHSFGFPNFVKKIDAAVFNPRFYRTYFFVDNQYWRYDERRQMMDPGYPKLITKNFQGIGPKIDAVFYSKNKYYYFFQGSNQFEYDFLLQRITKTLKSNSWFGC
The test can be described thus: Test for enzymatic inhibition of MMP-12 (colorimetric, thiopeptide substrate/DTNB). Type of test: biochemical. The conditions noted are these: purified human enzyme; for IC50: 1 h preincubation, 150 μM substrate, read-out: IC50 MMP12; for Ki: read-out: Ki MMP12. As to the method:
as §1, §2, §3, §4, §5, §6, §7, §8

T1 sequence (P14780 94-707): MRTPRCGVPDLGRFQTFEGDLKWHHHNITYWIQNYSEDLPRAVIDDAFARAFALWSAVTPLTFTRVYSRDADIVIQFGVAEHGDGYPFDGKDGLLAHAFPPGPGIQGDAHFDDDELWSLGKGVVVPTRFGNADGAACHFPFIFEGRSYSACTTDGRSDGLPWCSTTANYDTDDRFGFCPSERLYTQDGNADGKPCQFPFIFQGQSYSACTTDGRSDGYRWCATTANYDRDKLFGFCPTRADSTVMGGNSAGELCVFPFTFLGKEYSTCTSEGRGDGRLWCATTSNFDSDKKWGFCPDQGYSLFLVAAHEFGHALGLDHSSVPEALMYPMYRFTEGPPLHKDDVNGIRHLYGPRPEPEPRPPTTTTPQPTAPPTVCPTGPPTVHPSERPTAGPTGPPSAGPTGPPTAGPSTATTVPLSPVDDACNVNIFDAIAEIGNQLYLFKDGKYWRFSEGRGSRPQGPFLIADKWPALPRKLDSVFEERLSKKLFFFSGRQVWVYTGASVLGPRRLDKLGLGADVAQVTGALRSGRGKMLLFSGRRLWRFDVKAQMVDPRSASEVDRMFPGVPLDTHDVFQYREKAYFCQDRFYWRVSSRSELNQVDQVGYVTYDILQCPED

As a reminder, the IC50 is the concentration at which inhibition is half-maximal. One may read the Ki as a dissociation constant, usually derived from enzyme kinetics or from competition with a known ligand. Turning to `C=C[C@H](C(=O)N[C@@H](Cc1ccccc1)C(=O)O)[C@H](O)c1cc(OCc2ccc(OC)cc2)n(-c2ccccc2)n1` [Compound 4, (S)-2-((S)-2-((S)-hydroxy-(5-(4-methoxybenzyloxy)-1-phenyl-1H-pyrazol-3-yl)methyl)but-3-enamido)-3-phenylpropanoic acid], on gelatinase MMP-9, the IC50 was found to be 259 µM and the inhibition constant (Ki) was determined as 128 µM. At metalloelastase MMP-12, the half-maximal inhibitory concentration (IC50) was determined as 20.2 µM and the Ki is 10.3 µM.
On the same counts, the results for `C=C[C@H](C(=O)N[C@@H](Cc1ccccc1)C(=O)NC1CCCCC1)[C@H](O)c1ccc(-c2ccccc2)cc1` [Compound 2, (S)-2-((S)-biphenyl-4-yl(hydroxy)methyl)-N—((S)-1-(cyclohexylamino)-1-oxo-3-phenylpropan-2-yl)but-3-enamide] are 126 µM, 62.2 µM, 20 µM and 10.2 µM.
For `C=C[C@H](C(=O)N[C@@H](CC(=O)O)C(=O)O)[C@H](O)c1cc(OCc2ccc(OC)cc2)n(-c2ccccc2)n1` [Compound 6, (S)-2-((S)-2-((S)-hydroxy-(5-(4-methoxybenzyloxy)-1-phenyl-1H-pyrazol-3-yl)methyl)but-3-enamido)succinic acid], in that order: 13.1 µM, 6.47 µM, 6.3 µM and 3.21 µM.
For `C=C[C@H](C(=O)N[C@@H](Cc1ccccc1)C(=O)NC1CCCCC1)[C@H](O)c1cc(OCc2ccc(OC)cc2)n(-c2ccccc2)n1` [Compound 3, (S)—N—((S)-1-(cyclohexylamino)-1-oxo-3-phenylpropan-2-yl)-2-((S)-hydroxy(5-(4-methoxybenzyloxy)-1-phenyl-1H-pyrazol-3-yl)methyl)but-3-enamide], in that order: 5 µM, 2.47 µM, 7.23 µM and 3.68 µM.
Regarding `C=C[C@H](C(=O)N[C@@H](CCSC)C(=O)O)[C@H](O)CCCC` [Compound 7, (S)-2-((2S,3R)-3-hydroxy-2-vinylheptanamido)-4-(methylthio)butanoic acid], the half-inhibitory concentration (IC50) at gelatinase MMP-9 was determined as 330 µM; at metalloelastase MMP-12 it was 78.3 µM. For the same compound, the inhibition constant (Ki) at gelatinase MMP-9 is 163 µM; at metalloelastase MMP-12 it was 39.9 µM.
On the same counts, the results for `C=C[C@H](C(=O)N[C@@H](Cc1ccccc1)C(=O)NC1CCCCC1)[C@@H](C)O` [Compound 1, (S)—N—((S)-1-(cyclohexylamino)-1-oxo-3-phenylpropan-2-yl)-2-((R)-1-hydroxyethyl)but-3-enamide] are 18.1 µM, 19.5 µM, 8.95 µM and 9.95 µM.
On the same counts, the results for `C=C[C@H](C(=O)N[C@@H](Cc1ccccc1)C(=O)NO)[C@H](O)c1cc(OCc2ccc(OC)cc2)n(-c2ccccc2)n1` [Compound 5, (S)-2-((S)-hydroxy-(5-(4-methoxybenzyloxy)-1-phenyl-1H-pyrazol-3-yl)methyl)-N—((S)-1-(hydroxyamino)-1-oxo-3-phenylpropan-2-yl)but-3-enamide] are 19.8 µM, 22.3 µM, 9.78 µM and 11.4 µM.
